In paper PMC10570359, “Dietary supplementation of cystinotic mice by lysine inhibits the megalin pathway and decreases kidney cystine content” (Scientific Reports, 2023):
Like-named read-outs stand apart in the source and are kept apart here.

What was measured:
Format in all cases: in vivo
[1] = tested on: megalin pathway; assay: LMW proteinuria (urinary CC16) in WT mice under 5x-dAA diets; conditions: WT C57Bl-6 mice, 3 weeks diet, vs control diet
Protocol: In a second experiment, 5x-D-lysine was compared to regular diet.
(§1) Body weight was recorded before entering the metabolic cages. […] Creatinine clearance was normalized by mouse body weight.

[2] = tested on: megalin; assay: Confocal imaging of megalin localization in kidney proximal tubular cells of WT mice; conditions: WT female mice, two weeks diet, kidney cortex
Source text: Glom, glomerulus (no detectable megalin signal).

[3] = Urinary and serum amino-acid concentration by mass spectrometry in Ctns KO mice; conditions: for Urinary alanine / Urinary cystine / Urinary glycine: Ctns KO mice at 8 months of age, 24-h urine, mean ± SEM; for increase of cystinuria: vs control diet; for concentration at 2 months: n = 4
Protocol: as §1
Quantitative analysis of underivatized amino-acids in serum and urine samples was performed using the Amino Acids LC–MS/MS analysis Kit Jasem®. […] Equipment was controlled and data were analyzed using MassHunter Workstation (Agilent Technologies). The assay was validated for selectivity, specificity, linearity and limit of quantification, accuracy and precision, matrix effects and recovery, and stability.

[4] = tested on: NaPi-IIa and SGLT-2; assay: NaPi-IIa and SGLT-2 mRNA levels in Ctns KO mice kidneys; conditions: Ctns KO mice kidneys at 8 months of age, fold-change viz control diet
Protocol: At cellular level, we assessed PT cell death linked to compensatory renewal, by measuring Ki-67 immunolabelling abundance, a validated proliferation index (Fig. 6a)[22]. […] At subcellular level, NaPi-IIa and SGLT-2 mRNA levels were measured as apical differentiation markers (Fig. 6b,c).
Figure 6 Effects of diets on selected PTC indices in Ctns KO mice kidneys at 8 months of age. (a) Proliferative events in PTCs were identified by Ki-67 immunolabelling in confocal images and scored over random fields to cumulative areas of 0.96 mm^2. […] For representative confocal images and proliferation events in all cortical compartments, see Supplemental Fig. 6. (b,c) Apical differentiation state. Expression levels of NaPi-IIa and SGLT-2 as representative apical PT transporters were calculated as ratios to the housekeeping gene, HPRT1, and presented as fold-change viz control diet.

[5] = tested on: kidney proximal tubular cells; assay: Triple fluorescence of lysosomes and endogenous albumin in PTCs of Ctns KO mice (2-to-6 months diet); conditions: Ctns KO female mice, diet from 2-to-6 months-of-age
Protocol: For in vivo endocytic tracing in PTCs, Texas Red-ovalbumin (300 µg, Invitrogen #O23021) was injected intravenously at 20 min before sacrifice. For immunofluorescence, antigen retrieval was promoted in citrate buffer, pH 6, at 95 °C for 20 min using a Lab Vision Pretreatment Module™ (Thermo Scientific). Tissue was permeabilized with PBS/0.3% Triton-X100 for 5 min, then for one further hour with 10% bovine serum albumin (BSA)/3% milk to block non-specific sites. Sections were incubated overnight at 4 °C with the following primary reagents in blocking buffer: sheep anti-megalin (1/800, kindly provided by Drs P. Verroust and R. Kozyraki, INSERM U968, Paris, F-75012, FR), rat anti-LAMP-1 (1/100; #1D4B, Hybridoma Bank), mouse anti-ezrin (1/100, #MS-661-P1, ThermoScientific), mouse anti-Ki67 (1/250, #556003, BD-Pharmingen), rabbit anti-human albumin (1/1000; Dako #A0001). After washing, sections were further incubated with the appropriate AlexaFluor-secondary antibodies for 1 h at room temperature in 10% BSA/0.3% Triton-X100 and mounted with Faramount aqueous mounting medium (Dako). Sections were imaged on a spinning disk confocal microscope using EC Plan-NeoFluar 40X/1.3 or 100x/1.4 Oil DIC objective (Cell Observer Spinning Disk; Zeiss). Proliferative events in kidney cortex were quantified as described. Alternatively, whole kidney images were acquired using a Pannoramic 250 Flash III microscope (3DHistech). Histological PAS staining and quantification of the frequency of swan-neck lesions were performed as described. Sirius Red staining of paraffine sections and morphometry in total sagittal kidney sections after conversion to red fluorescence were performed as described[53],[54]. […]
Supplemental Figure 3. […]
not detected within PT lysosomes of dAA-treated mice under identical immunolabeling /imaging conditions, indicating impaired endocytosis and/or […] degradation upon dbAA supplementation. […]

[6] = Ctns KO mice, daily urine collections
[7] = female, C57BL/6, mouse, in vivo, 2 months

For `NCCCC[C@H](N)C(=O)O` [5x-L-lysine, L-lysine], which “increase of urinary excretion of CC16 (normalized for creatinine excretion)” value [1] is on record?
The value was 7 fold.

What about the “subcellular localization of megalin in PTCs” value [2] of the same compound?
Its value is “no relocation”.

What about the Urinary alanine [3] of the same compound?
Its Urinary alanine is 639.6 ± 279.6 mM/M creatinine.

What about the Urinary cystine [3] of the same compound?
The Urinary cystine was 504.5 ± 61.2 mM/M creatinine.

What about the Urinary glycine [3] of the same compound?
The Urinary glycine was 881.0 ± 265.9 mM/M creatinine.

And the “urinary lysine concentration reached” value [3, 6]?
Its value is ~ 25 mM.

And the increase of cystinuria ([3]; Ctns KO mice)?
Its increase of cystinuria is 8 fold.

What about the increase of argininuria [3, 7] of the same compound?
The increase of argininuria was 25 fold.

What about the increase of lysinuria [3, 7] of the same compound?
Its increase of lysinuria is 210 fold.

What about the concentration at 2 months ([3]; female, C57BL/6, mouse, in vivo, 6.5 g/kg/day, Ctns KO mice, read-out: serum lysine) of the same compound?
The concentration at 2 months was 581 ± 15.5 µM.

And the “NaPi-IIa and SGLT-2 mRNA levels (apical differentiation markers)” value [4]?
The value was “significant yet limited benefit”.

And the “endogenous albumin signal in PTC lysosomes” value [5]?
The value was “disappearance of albumin signal”.

And the “lysosomal enlargement/deformation in PTCs” value [5]?
Its value is “prevent lysosomal enlargement and distorsion”.

Which “increase of urinary excretion of CC16 (normalized for creatinine excretion)” value [1] does the source give for `N=C(N)NCCC[C@H](N)C(=O)O` [5x-L-arginine, L-arginine] here?
Its value is “did not detectably increase”.

What about the “subcellular localization of megalin in PTCs” value [2] of the same compound?
Its value is “no relocation”.

And the Urinary alanine [3]?
The Urinary alanine was 712.5 ± 216.9 mM/M creatinine.

And the Urinary cystine [3]?
Its Urinary cystine is 146.6 ± 43.7 mM/M creatinine.

What about the Urinary glycine [3] of the same compound?
Its Urinary glycine is 963.7 ± 218.1 mM/M creatinine.

What about the “urinary arginine concentration reached” value [3, 6] of the same compound?
Its value is ~ 1 mM.

And the increase of cystinuria ([3]; Ctns KO mice)?
The increase of cystinuria was “twofold”.

And the increase of argininuria [3, 7]?
Its increase of argininuria is 33 fold.

What about the concentration at 2 months ([3]; female, C57BL/6, mouse, serum, oral, 7.6 g/kg/day, Ctns KO mice, read-out: serum arginine) of the same compound?
The concentration at 2 months was 137 ± 35 µM.

What about the “NaPi-IIa and SGLT-2 mRNA levels (apical differentiation markers)” value [4] of the same compound?
The value was “failed to protect”.

What about the “lysosomal enlargement/deformation in PTCs” value [5] of the same compound?
The value was “prevent lysosomal enlargement and distorsion”.
